In BindingDB's records for doi:10.7270/Q2SB445M (Nmmlsc, 2009):

Target: Ras-related protein Rab-7a (Canis lupus familiaris, UniProt P18067)
Experiment: extra analogs blocking nucleotide binding to Rab7 – biochemical, additional analogs, wildtype, multiplex bead flow cytometry, SAR follow-up (AID 2036)

Sequence of Ras-related protein Rab-7a (P18067 whole entry): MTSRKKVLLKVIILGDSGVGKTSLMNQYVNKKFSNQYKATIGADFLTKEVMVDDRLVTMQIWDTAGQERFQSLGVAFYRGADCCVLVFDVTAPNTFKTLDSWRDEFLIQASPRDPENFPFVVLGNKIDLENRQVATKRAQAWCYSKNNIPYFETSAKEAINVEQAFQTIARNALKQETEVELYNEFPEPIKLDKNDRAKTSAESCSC

Ki [nM] | SMILES
870 | O=C1NC(=S)N/C1=C1\C(=O)Nc2ccccc21 [(3Z)-3-(5-oxo-2-sulfanylideneimidazolidin-4-ylidene)-1H-indol-2-one]
1560 | O=C1Nc2c(F)cccc2C1=C1Nc2ccccc2C1=O
